Test results as given in US8367838B2, “Amines or amino alcohols as GLYT1 inhibitors” (Hoffmann-La Roche Inc., priority 2009, dated 2013).
Structures can show the parent of a compound that is named as a salt.

Biological target: T1, mGlyT-1b (Mus musculus, UniProt P28571)
T1 construct: host or cells: Flp-in-CHO
T1 sequence (P28571 1-651 isoform P28571-2): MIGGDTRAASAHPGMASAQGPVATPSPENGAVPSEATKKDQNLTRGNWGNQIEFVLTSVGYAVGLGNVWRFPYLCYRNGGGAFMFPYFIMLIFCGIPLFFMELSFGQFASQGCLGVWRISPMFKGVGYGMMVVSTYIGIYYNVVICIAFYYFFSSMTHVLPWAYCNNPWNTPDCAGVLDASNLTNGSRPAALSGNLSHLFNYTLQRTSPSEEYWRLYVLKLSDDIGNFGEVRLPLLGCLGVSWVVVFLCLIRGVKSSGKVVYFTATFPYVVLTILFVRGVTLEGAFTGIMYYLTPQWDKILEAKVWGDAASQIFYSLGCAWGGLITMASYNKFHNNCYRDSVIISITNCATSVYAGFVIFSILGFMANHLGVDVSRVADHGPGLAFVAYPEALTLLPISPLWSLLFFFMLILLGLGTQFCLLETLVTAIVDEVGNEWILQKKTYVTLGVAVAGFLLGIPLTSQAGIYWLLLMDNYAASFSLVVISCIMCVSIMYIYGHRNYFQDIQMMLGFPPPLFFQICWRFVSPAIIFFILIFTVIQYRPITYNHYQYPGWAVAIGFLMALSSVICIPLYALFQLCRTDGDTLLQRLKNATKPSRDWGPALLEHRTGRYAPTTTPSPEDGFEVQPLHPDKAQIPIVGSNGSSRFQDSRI
Test: Glycine uptake inhibition assay (mGlyT-1b), [3H]-glycine uptake in transfected Flp-in-CHO cells
Type: cell-based
Conditions: Flp-in-CHO cells transfected with mGlyT-1b cDNA; [3H]-glycine 60 nM and 25 μM non-radioactive glycine; 20 min preincubation at 22° C.; read-out: IC50 (μM) at GlyT-1; Ic50 (hglyt1b)
Method: Nutrient mixture F-12 (Gibco Life-technologies), fetal bovine serum (FBS) 5%, (Gibco life technologies), Penicillin/Streptomycin 1% (Gibco life technologies), Hygromycin 0.6 mg/ml (Gibco life technologies), Glutamine 1 mM Gibco life technologies).
150 mM NaCl, 10 mM Hepes-Tris, pH 7.4, 1 mM CaCl2, 2.5 mM KCl, 2.5 mM MgSO4, 10 mM (+) D-glucose. Flp-in™-CHO (Invitrogen Cat n° R758-07) cells stably transfected with mGlyT1b cDNA.
Glycine Uptake Inhibition Assay (mGlyT-1b)
On day 1 mammalian cells, (Flp-in™-CHO), transfected with mGlyT-1b cDNA, were plated at the density of 40,000 cells/well in complete F-12 medium, without hygromycin in 96-well culture plates. On day 2, the medium was aspirated and the cells were washed twice with uptake buffer (UB). The cells were then incubated for 20 min at 22° C. with either (i) no potential competitor, (ii) 10 mM non-radioactive glycine, (iii) a concentration of a potential inhibitor. A range of concentrations of the potential inhibitor was used to generate data for calculating the concentration of inhibitor resulting in 50% of the effect (e.g. IC50, the concentration of the competitor inhibiting glycine uptake of 50%). A solution was then immediately added containing [^3H]-glycine 60 nM (11-16 Ci/mmol) and 25 μM non-radioactive glycine. The plates were incubated with gentle shaking and the reaction was stopped by aspiration of the mixture and washing (three times) with ice-cold UB. The cells were lysed with scintillation liquid, shaken 3 hours and the radioactivity in the cells was counted using a scintillation counter.

Row | IC50 [µM] | SMILES
1 | 0.261 | COCc1cccc(-c2ccc([C@@H](O)[C@@H](N)c3ccc(Cl)cc3)cc2)c1 (racemic) [Example 60, rac-erythro-2-Amino-2-(4-chloro-phenyl)-1-(3′-methoxymethyl-biphenyl-4-yl)-ethanol hydrochloride]
2 | 0.06 | N[C@@H](c1ccc(Cl)cc1)[C@H](O)c1ccc(-c2ccncc2)cc1 (racemic) [Example 61, rac-erythro-2-Amino-2-(4-chloro-phenyl)-1-(4-pyridin-4-yl-phenyl)-ethanol]
3 | 0.068 | CS(=O)(=O)c1cccc(-c2ccc([C@@H](O)[C@@H](N)c3ccc(Cl)cc3)cc2)c1 (racemic) [Example 62, rac-erythro-2-Amino-2-(4-chloro-phenyl)-1-(3′-methanesulfonyl-biphenyl-4-yl)-ethanol]
4 | 0.09 | N[C@@H](c1ccc(Cl)cc1)[C@H](O)c1ccc(-c2cccnc2)cc1 (racemic) [Example 63, rac-erythro-2-Amino-2-(4-chloro-phenyl)-1-(4-pyridin-3-yl-phenyl)-ethanol hydrochloride]
5 | 0.138 | COc1cncc(-c2ccc([C@@H](O)[C@@H](N)c3ccc(Cl)cc3)cc2)c1 (racemic) [Example 64, rac-erythro-2-Amino-2-(4-chloro-phenyl)-1-[4-(5-methoxy-pyridin-3-yl)-phenyl]-ethanol]
6 | 0.139 | N[C@@H](c1ccc(Cl)cc1)[C@H](O)c1ccc(-c2cncnc2)cc1 (racemic) [Example 65, rac-erythro-2-Amino-2-(4-chloro-phenyl)-1-(4-pyrimidin-5-yl-phenyl)-ethanol]
7 | 0.152 | N[C@@H](c1ccc(Cl)cc1)[C@H](O)c1ccc(-c2cncc(F)c2)cc1 (racemic) [Example 66, rac-erythro-2-Amino-2-(4-chloro-phenyl)-1-[4-(5-fluoro-pyridin-3-yl)-phenyl]-ethanol]
8 | 0.173 | CC(=O)Nc1cccc(-c2ccc([C@@H](O)[C@@H](N)c3ccc(Cl)cc3)cc2)c1 (racemic) [Example 67, rac-erythro-N-[4′-[2-Amino-2-(4-chloro-phenyl)-1-hydroxy-ethyl]-biphenyl-3-yl]-acetamide]
9 | 0.18 | N[C@@H](c1ccc(Cl)cc1)[C@H](O)c1ccc(-c2ccccc2F)cc1 (racemic) [Example 68, rac-erythro-2-Amino-2-(4-chloro-phenyl)-1-(2′-fluoro-biphenyl-4-yl)-ethanol]
10 | 0.217 | Nc1ccc(-c2ccc([C@@H](O)[C@@H](N)c3ccc(Cl)cc3)cc2)cn1 (racemic) [Example 69, rac-erythro-2-Amino-1-[4-(6-amino-pyridin-3-yl)-phenyl]-2-(4-chloro-phenyl)-ethanol]
11 | 0.297 | N[C@@H](c1ccc(Cl)cc1)[C@H](O)c1ccc(-c2ccsc2)cc1 (racemic) [Example 70, rac-erythro-2-Amino-2-(4-chloro-phenyl)-1-(4-thiophen-3-yl-phenyl)-ethanol]
12 | 0.342 | Cc1cccc(-c2ccc([C@@H](O)[C@@H](N)c3ccc(Cl)cc3)cc2)c1 (racemic) [Example 71, rac-erythro-2-Amino-2-(4-chloro-phenyl)-1-(3′-methyl-biphenyl-4-yl)-ethanol]
13 | 0.385 | COc1cccc(-c2ccc([C@@H](O)[C@@H](N)c3ccc(Cl)cc3)cc2)c1 (racemic) [Example 72, rac-erythro-2-Amino-2-(4-chloro-phenyl)-1-(3′-methoxy-biphenyl-4-yl)-ethanol]
14 | 0.462 | N[C@@H](c1ccc(Cl)cc1)[C@H](O)c1ccc(-c2ccccc2Cl)cc1 (racemic) [Example 73, rac-erythro-2-Amino-1-(2′-chloro-biphenyl-4-yl)-2-(4-chloro-phenyl)-ethanol]
15 | 0.544 | N[C@@H](c1ccc(Cl)cc1)[C@H](O)c1ccc(-c2cccc(Cl)c2)cc1 (racemic) [Example 74, rac-erythro-2-Amino-1-(3′-chloro-biphenyl-4-yl)-2-(4-chloro-phenyl)-ethanol]
16 | 0.582 | Cc1nc(C)c(-c2ccc([C@@H](O)[C@@H](N)c3ccc(Cl)cc3)cc2)s1 (racemic) [Example 75, rac-erythro-2-Amino-2-(4-chloro-phenyl)-1-[4-(2,4-dimethyl-thiazol-5-yl)-phenyl]-ethanol]
17 | 0.642 | Cc1ccccc1-c1ccc([C@@H](O)[C@@H](N)c2ccc(Cl)cc2)cc1 (racemic) [Example 76, rac-erythro-2-Amino-2-(4-chloro-phenyl)-1-(2′-methyl-biphenyl-4-yl)-ethanol]
18 | 0.814 | COc1ccc(-c2ccc([C@@H](O)[C@@H](N)c3ccc(Cl)cc3)cc2)cn1 (racemic) [Example 77, rac-erythro-2-Amino-2-(4-chloro-phenyl)-1-[4-(6-methoxy-pyridin-3-yl)-phenyl]-ethanol]
19 | 0.88 | N[C@@H](c1ccc(Cl)cc1)[C@H](O)c1ccc(-c2cccc(OC(F)(F)F)c2)cc1 (racemic) [Example 78, rac-erythro-2-Amino-2-(4-chloro-phenyl)-1-(3′-trifluoromethoxy-biphenyl-4-yl)-ethanol]
20 | 0.93 | N[C@@H](c1ccc(Cl)cc1)[C@H](O)c1ccc(-c2cccc(C(F)(F)F)c2)cc1 (racemic) [Example 79, rac-erythro-2-Amino-2-(4-chloro-phenyl)-1-(3′-trifluoromethyl-biphenyl-4-yl)-ethanol]
21 | 1.04 | N[C@@H](c1ccc(Cl)cc1)[C@H](O)c1ccc(N2CCOCC2)nc1 (racemic) [Example 80, rac-erythro-2-Amino-2-(4-chloro-phenyl)-1-(6-morpholin-4-yl-pyridin-3-yl)-ethanol]
22 | 0.031 | N[C@@H](c1ccc(Cl)c(Cl)c1)[C@H](O)c1ccc(-c2cccnc2)cc1 (racemic) [Example 81, rac-erythro-2-Amino-2-(3,4-dichloro-phenyl)-1-(4-pyridin-3-yl-phenyl)-ethanol]
23 | 0.047 | CS(=O)(=O)c1cncc(-c2ccc([C@@H](O)[C@@H](N)c3ccc(Cl)c(Cl)c3)cc2)c1 (racemic) [Example 82, rac-erythro-2-Amino-2-(3,4-dichloro-phenyl)-1-[4-(5-methanesulfonyl-pyridin-3-yl)-phenyl]-ethanol]
24 | 0.059 | N[C@@H](c1ccc(Cl)c(Cl)c1)[C@H](O)c1ccc(-c2cncc(F)c2)cc1 (racemic) [Example 83, rac-erythro-2-Amino-2-(3,4-dichloro-phenyl)-1-[4-(5-fluoro-pyridin-3-yl)-phenyl]-ethanol]

Row | SMILES | IC50 [µM]
25 | Cc1ccc([C@H](N)[C@H](O)c2ccc(OC3CCOCC3)cc2)cc1Cl (racemic) [Example 54, rac-erythro-[2-Amino-2-(3-chloro-4-methyl-phenyl)-1-[4-(tetrahydro-pyran-4-yloxy)-phenyl]-ethanol] | 0.104
26 | Cc1ccc([C@H](N)[C@H](O)c2ccc(OC3CCOC3)cc2)cc1Cl (mixture of isomers) [Example 55, rac-erythro-[2-Amino-2-(3-chloro-4-methyl-phenyl)-1-[4-(tetrahydro-furan-3-yloxy)-phenyl]-ethanol] | 0.131
27 | Cc1ccc([C@H](N)[C@H](O)c2ccc(OC(C)C)cc2)cc1Cl (racemic) [Example 56, rac-erythro-2-Amino-2-(3-chloro-4-methylphenyl)-1-(4-isopropoxy-phenyl)-ethanol] | 0.381
28 | Cc1ccc([C@H](N)[C@H](O)c2ccc(OC3CCOCC3)cc2)cc1F (racemic) [Example 57, rac-erythro-2-Amino-2-(3-fluoro-4-methyl-phenyl)-1-[4-(tetrahydro-pyran-4-yloxy)-phenyl]-ethanol] | 0.202
29 | N[C@@H](c1ccc(Cl)cc1)[C@H](O)c1ccc(OC(CF)CF)cc1 (racemic) [Example 58, rac-erythro-2-Amino-2-(4-chloro-phenyl)-1-[4-(2-fluoro-1-fluoromethyl-ethoxy)-phenyl]-ethanol] | 0.478
30 | N[C@@H](c1ccc(Cl)cc1)[C@H](O)c1ccc(OC2CCOCC2)cc1 (racemic) [Example 59, rac-erythro-2-Amino-2-(4-chloro-phenyl)-1-[4-(tetrahydro-pyran-4-yloxy)-phenyl]-ethanol] | 0.054
